In brackets after ≈: the same amount, converted by molar mass. Where two headings read alike, the source gives them in different places. Positions of bridges follow the written chain, without caps; N, C: chain ends. Non-standard residues stand in square brackets, D forms with d. Residues, ends and D or L forms follow the SMILES beside them. *: point of attachment. dPhe(4-NO2) = N[C@H](Cc1ccc([N+](=O)[O-])cc1)C(=O)O; Decanoyl(3R-OH) = CCCCCCC[C@@H](O)CC(=O)*; dPhe(4-NH2) = Nc1ccc(C[C@@H](N)C(=O)O)cc1; d3Pal = N[C@H](Cc1cccnc1)C(=O)O; Dab = NCC[C@H](N)C(=O)O
Tests used:
[1] = tested on: K. pneumoniae GN_106, PmxR; details: GN 106, PmxR
Method: (§1) Bacteria were either obtained from American Type Culture Collection (ATCC; Manassas, Va., USA) or independent academic clinical isolate collections, as listed in Table 18 below. Bacteria were cultured in Nutrient broth (NB; Bacto Laboratories, catalogue No. 234000) or Mueller Hinton broth (MHB; Bacto Laboratories, catalogue No. 211443) at 37° C. overnight with shaking (˜180 RPM). A sample of each culture was then diluted 50-fold in fresh MHB and incubated at 37° C. for 2-3 h with shaking (˜180 RPM). Compound stock solutions were prepared as 0.64 mg/mL or 2.56 mg/mL in water. The compounds, at twice the final desired concentration, were serially diluted 2-fold across the wells of 96-well plates (Polystyrene, Corning, catalogue No. 3370). Mid-log phase bacterial cultures (after 2-3 h incubation) were diluted to a final concentration of 1×10^6 colony forming units (CFU)/mL, and 50 μL was added to each well giving a final cell density of 5×10^5 and a compound concentration range of 32 μg/mL to 0.015 μg/mL (128-0.06 μg/mL against P. aeruginosa PA9704).

[2] = tested on: P. aeruginosa GN_043, PmxR
Method: as §1

[3] = tested on: K. pneumoniae ATCC BAA-2146, NDM-1 pos; details: ATCC BAA-2146
Method: as §1

P. aeruginosa ATCC 27853 = details: ATCC 27853
Method: as §1

A. baumannii GN_093 PmxR = details: GN 093 PmxR
Method: as §1

K. pneumoniae ATCC 13883 = details: ATCC 13883
Method: as §1

A. baumannii ATCC 19606 = details: ATCC 19606
Method: as §1

[4] = tested on: S. aureus ATCC 25923, MSSA; details: ATCC 25923
Method: as §1

E. coli ATCC 25922 = details: ATCC 25922
Method: as §1

[5] = tested on: P. aeruginosa GN_105, PmxR; details: GN 105, PmxR
Method: as §1

[6] = tested on: K. pneumoniae ATCC 700603, MDR; details: ATCC 700603
Method: as §1

[7] = tested on: K. pneumoniae GN_102 PmxR; details: GN 102 PmxR
Method: as §1

Compound | MIC K. pneumoniae GN_106, PmxR [1] [µg/mL] | MIC P. aeruginosa GN_043, PmxR ([2]; P. aeruginosa GN_043, PmxR) [µg/mL] | MIC K. pneumoniae ATCC BAA-2146, NDM-1 pos [3] [µg/mL] | MIC P. aeruginosa ATCC 27853 (P. aeruginosa ATCC 27853) [µg/mL] | MIC A. baumannii GN_093 PmxR (A. baumannii GN_093 PmxR) [µg/mL] | MIC K. pneumoniae ATCC 13883 (K. pneumoniae ATCC 13883) [µg/mL] | MIC A. baumannii ATCC 19606 (A. baumannii ATCC 19606) [µg/mL] | MIC S. aureus ATCC 25923, MSSA [4] [µg/mL] | MIC E. coli ATCC 25922 (E. coli ATCC 25922) [µg/mL] | MIC P. aeruginosa GN_105, PmxR [5] [µg/mL] | MIC K. pneumoniae ATCC 700603, MDR [6] [µg/mL] | MIC K. pneumoniae GN_102 PmxR [7] [µg/mL] | MIC P. aeruginosa GN_043, PmxR ([2]; Table 6, polymyxin-resistant) [µg/mL] | MIC, K. pneumoniae ATCC BAA-2146, NDM-1 pos [3] [µg/mL] | MIC, P. aeruginosa ATCC 27853 (P. aeruginosa ATCC 27853) [µg/mL] | MIC, K. pneumoniae ATCC 13883 (K. pneumoniae ATCC 13883) [µg/mL] | MIC, A. baumannii ATCC 19606 (A. baumannii ATCC 19606) [µg/mL] | MIC, S. aureus ATCC 25923, MSSA [4] [µg/mL] | MIC, E. coli ATCC 25922 (E. coli ATCC 25922) [µg/mL] | MIC, K. pneumoniae ATCC 700603, MDR [6] [µg/mL]
CCCCCCC[C@@H](O)CC(=O)N[C@H](Cc1c[nH]c2ccccc12)C(=O)N[C@H]1CCNC(=O)[C@H](CC(C)C)NC(=O)[C@H](CCN)NC(=O)[C@H](CCN)NC(=O)[C@H](Cc2ccccc2)NC(=O)[C@@H](CC(C)C)NC(=O)[C@H](CCN)NC1=O [compound 6426, 3(R)OH-nC9CO-D-Trp-cyc[L-Dab-L-Dab-D-Leu-L-Phe-L-Dab-L-Dab-L-Leu]] ({Decanoyl(3R-OH)}-[dW][Dab][Dab][dL]F[Dab][Dab]L; lactam 2-C) | 4 (≈ 3.54 µM) | 8 (≈ 7.08 µM) | 8 (≈ 7.08 µM) | 8 (≈ 7.08 µM) | 16 (≈ 14.2 µM) | 8 (≈ 7.08 µM) | 16 (≈ 14.2 µM) | 8 (≈ 7.08 µM) | 4 (≈ 3.54 µM) | 8 (≈ 7.08 µM) | 8 (≈ 7.08 µM) | 4 (≈ 3.54 µM) |  |  |  |  |  |  |  | 
CCCCCCC[C@@H](O)CC(=O)N[C@H](Cc1ccc([N+](=O)[O-])cc1)C(=O)N[C@H]1CCNC(=O)[C@H](CC(C)C)NC(=O)[C@H](CCN)NC(=O)[C@H](CCN)NC(=O)[C@H](Cc2ccccc2)NC(=O)[C@@H](CC(C)C)NC(=O)[C@H](CCN)NC1=O [compound 6433, 3(R)OH-nC9CO-D-4NO2Phe-cyc[L-Dab-L-Dab-D-Leu-L-Phe-L-Dab-L-Dab-L-Leu]] ({Decanoyl(3R-OH)}-[dPhe(4-NO2)][Dab][Dab][dL]F[Dab][Dab]L; lactam 2-C) | 4 (≈ 3.52 µM) | 4 (≈ 3.52 µM) | 8 (≈ 7.04 µM) | 8 (≈ 7.04 µM) | 16 (≈ 14.1 µM) | 8 (≈ 7.04 µM) | 8 (≈ 7.04 µM) | 8 (≈ 7.04 µM) | 8 (≈ 7.04 µM) | 8 (≈ 7.04 µM) | 8 (≈ 7.04 µM) | 4 (≈ 3.52 µM) |  |  |  |  |  |  |  | 
CCCCCCC[C@@H](O)CC(=O)N[C@H](Cc1c[nH]c2ccccc12)C(=O)N[C@H]1CCNC(=O)[C@H](CC(C)C)NC(=O)[C@H](CCN)NC(=O)[C@H](CCN)NC(=O)[C@H](CC(C)C)NC(=O)[C@@H](Cc2ccccc2)NC(=O)[C@H](CCN)NC1=O [compound 6441, 3(R)OH-nC9CO-D-Trp-cyc[L-Dab-L-Dab-D-Phe-L-Leu-L-Dab-L-Dab-L-Leu]] ({Decanoyl(3R-OH)}-[dW][Dab][Dab][dF]L[Dab][Dab]L; lactam 2-C) | 4 (≈ 3.54 µM) |  |  |  | 32 (≈ 28.3 µM) |  |  |  |  | 16 (≈ 14.2 µM) |  | 8 (≈ 7.08 µM) | 8 (≈ 7.08 µM) | 8 (≈ 7.08 µM) | 16 (≈ 14.2 µM) | 16 (≈ 14.2 µM) | 16 (≈ 14.2 µM) | 8 (≈ 7.08 µM) | 16 (≈ 14.2 µM) | 8 (≈ 7.08 µM)
CCCCCCC[C@@H](O)CC(=O)N[C@H](Cc1ccc(N)cc1)C(=O)N[C@H]1CCNC(=O)[C@H](CC(C)C)NC(=O)[C@H](CCN)NC(=O)[C@H](CCN)NC(=O)[C@H](CC(C)C)NC(=O)[C@@H](Cc2ccccc2)NC(=O)[C@H](CCN)NC1=O [compound 6444, 3(R)OH-nC9CO-D-4NH2Phe-cyc[L-Dab-L-Dab-D-Phe-L-Leu-L-Dab-L-Dab-L-Leu]] ({Decanoyl(3R-OH)}-[dPhe(4-NH2)][Dab][Dab][dF]L[Dab][Dab]L; lactam 2-C) | 8 (≈ 7.23 µM) |  |  |  | 32 (≈ 28.9 µM) |  |  |  |  | 16 (≈ 14.5 µM) |  | 8 (≈ 7.23 µM) | 32 (≈ 28.9 µM) | 8 (≈ 7.23 µM) | 16 (≈ 14.5 µM) | 8 (≈ 7.23 µM) | 32 (≈ 28.9 µM) | >32 | 8 (≈ 7.23 µM) | 8 (≈ 7.23 µM)
CCCCCCC[C@@H](O)CC(=O)N[C@H](Cc1cccnc1)C(=O)N[C@H]1CCNC(=O)[C@H](CC(C)C)NC(=O)[C@H](CCN)NC(=O)[C@H](CCN)NC(=O)[C@H](CC(C)C)NC(=O)[C@@H](Cc2ccccc2)NC(=O)[C@H](CCN)NC1=O [compound 6445, 3(R)OH-nC9CO-D-3PyPhe-cyc[L-Dab-L-Dab-D-Phe-L-Leu-L-Dab-L-Dab-L-Leu]] ({Decanoyl(3R-OH)}-[d3Pal][Dab][Dab][dF]L[Dab][Dab]L; lactam 2-C) | 4 (≈ 3.66 µM) |  |  |  | >32 |  |  |  |  | 8 (≈ 7.32 µM) |  | 8 (≈ 7.32 µM) | 8 (≈ 7.32 µM) | 8 (≈ 7.32 µM) | 16 (≈ 14.6 µM) | 4 (≈ 3.66 µM) | 32 (≈ 29.3 µM) | >32 | 8 (≈ 7.32 µM) | 8 (≈ 7.32 µM)
CCCCCCC[C@@H](O)CC(=O)NCC(=O)N[C@H]1CCNC(=O)[C@H](CC(C)C)NC(=O)[C@H](CCN)NC(=O)[C@H](CCN)NC(=O)[C@H](CC(C)C)NC(=O)[C@@H](Cc2ccccc2)NC(=O)[C@H](CCN)NC1=O [compound 6446, 3(R)OH-nC9CO-Gly-cyc[L-Dab-L-Dab-D-Phe-L-Leu-L-Dab-L-Dab-L-Leu]] ({Decanoyl(3R-OH)}-G[Dab][Dab][dF]L[Dab][Dab]L; lactam 2-C) | 8 (≈ 7.99 µM) |  |  |  | 32 (≈ 32 µM) |  |  |  |  | 4 (≈ 3.99 µM) |  | 4 (≈ 3.99 µM) | 4 (≈ 3.99 µM) | 8 (≈ 7.99 µM) | 4 (≈ 3.99 µM) | 8 (≈ 7.99 µM) | 32 (≈ 32 µM) | >32 | 8 (≈ 7.99 µM) | 8 (≈ 7.99 µM)
CCCCCCC[C@@H](O)CC(=O)N[C@H](CC(N)=O)C(=O)N[C@H]1CCNC(=O)[C@H](CC(C)C)NC(=O)[C@H](CCN)NC(=O)[C@H](CCN)NC(=O)[C@H](CC(C)C)NC(=O)[C@@H](Cc2ccccc2)NC(=O)[C@H](CCN)NC1=O [compound 6447, 3(R)OH-nC9CO-D-Asn-cyc[L-Dab-L-Dab-D-Phe-L-Leu-L-Dab-L-Dab-L-Leu]] ({Decanoyl(3R-OH)}-[dN][Dab][Dab][dF]L[Dab][Dab]L; lactam 2-C) | 4 (≈ 3.78 µM) |  |  |  | 8 (≈ 7.56 µM) |  |  |  |  | 4 (≈ 3.78 µM) |  | 4 (≈ 3.78 µM) | 8 (≈ 7.56 µM) | 8 (≈ 7.56 µM) | 8 (≈ 7.56 µM) | 4 (≈ 3.78 µM) | 16 (≈ 15.1 µM) | 32 (≈ 30.2 µM) | 4 (≈ 3.78 µM) | 8 (≈ 7.56 µM)
CCCCCCC[C@@H](O)CC(=O)N[C@H](Cc1ccc([N+](=O)[O-])cc1)C(=O)N[C@H]1CCNC(=O)[C@H](CC(C)C)NC(=O)[C@H](CCN)NC(=O)[C@H](CCN)NC(=O)[C@H](CC(C)C)NC(=O)[C@@H](Cc2ccccc2)NC(=O)[C@H](CCN)NC1=O [compound 6448, 3(R)OH-nC9CO-D-4NO2Phe-cyc[L-Dab-L-Dab-D-Phe-L-Leu-L-Dab-L-Dab-L-Leu]] ({Decanoyl(3R-OH)}-[dPhe(4-NO2)][Dab][Dab][dF]L[Dab][Dab]L; lactam 2-C) | 4 (≈ 3.52 µM) |  |  |  | 8 (≈ 7.04 µM) |  |  |  |  | 8 (≈ 7.04 µM) |  | 8 (≈ 7.04 µM) | 8 (≈ 7.04 µM) | 8 (≈ 7.04 µM) | 8 (≈ 7.04 µM) | 4 (≈ 3.52 µM) | 8 (≈ 7.04 µM) | 16 (≈ 14.1 µM) | 4 (≈ 3.52 µM) | 8 (≈ 7.04 µM)

— US11279733B2, “Peptide antibiotics” (priority 2017, dated 2022)
